In patent US7507707B2, “Methods of inducing ovulation using a non-polypeptide camp level modulator” (Laboratoires Serono SA, priority 2001, dated 2009):

Tests used:
[1] = test system: immature female rats; experiment: In vivo ovulation model: FSH-pretreated immature rats, oocytes counted in oviduct after 18 hours; set-up: species or system rat
Excerpt: The role of FSH in any ovulation induction regimen is for promoting follicular development and maturation, not ovulation induction.
All injections were subcutaneous. Results are expressed as mean plus or minus standard deviations. […] The effects of Compound 1, a known PDE inhibitor are shown.
Data represent average number of oocytes in oviducts of all rats in each group and frequency of ovulating rats. […] Results are expressed as mean plus or minus standard deviations.
Data represent average number of oocytes in oviducts of all rats in each group and frequency of ovulating rats. Results are expressed as mean plus or minus standard deviations.
(§1) Following FSH induced follicular maturation (2.16 IU/rat/injection; bid×2 days) Compound 2 was either injected subcutaneously (subcutis) or administered by oral gavage. Ovulation was determined 18 hours after Compound 2 administration by counting oocytes in oviduct. Data represent average number of oocytes in oviducts of all rats in each group and frequency of ovulating rats. Results are expressed as mean plus or minus standard deviations.
as §1, with “days) […] was either” for “days) Compound 2 was either”

[2] = test system: immature female rats; experiment: Follicle maturation in vivo: sub-optimal FSH with co-administered PDE inhibitor, ovulatory hCG, oocytes counted in oviduct; set-up: species or system rat
Description: Mature ovarian follicles generated in immature female rats by treatment with a sub-optimal dose of FSH (1.08 IU/rat/injection; bid×3 days) with and without co-administration of Compound 1 (0.1, 1, 10, and 50 mg/kg/injection: bid×3 days). […] The PDE inhibitors were given in conjunction with sub-optimal doses of FSH. All injections were subcutaneously administered. […] Results are expressed as mean plus or minus standard deviations. […] As also noted in FIG. 3, a PDE inhibitor (Compound 1) inhibited (rather than stimulated) both ovulation administered at 50 mg/kg.

[3] = test system: rat ovarian granulosa cells; experiment: Rat ovarian granulosa cell cAMP levels, alone or with gonadotropins in vitro (cAMP specific RIA); assay type: cell-based; conditions: 25 micromolar compound with subeffective (0.1 pM) gonadotropin, 48 hrs
Description: Ovaries were removed from immature 25 day old, hypophysectomized, diethylstilbesterol treated Sprague-Dawley rats. The ovaries were repeatedly punctured with 27 gauge needles to liberate granulosa cells from the follicles. Cells were washed and re-suspended in McCoys 5A media+0.1% BSA+2 μM androstenedione. Viable cells in number of 100,000 were loaded into 6-well tissue culture dishes in a 1.0 ml volume (with Compound 1 and Compound 2 at a concentration of 25 micromolar, either alone or in conjunction with a low, 0.1 pM dose of gonadotropin). Plates were incubated in a 37° C. incubator, 100% humidity, 5.0% CO2 for 48 hrs. Conditioned media were assayed in a cAMP specific RIA. Results are expressed as mean plus or minus standard deviations.

[4] = test system: immature rats; experiment: Ovulation and fertility in FSH/PMSG pretreated immature rats; assay type: in vivo, rat; conditions: single subcutaneous injection
Description: Follicular maturation was induced in immature rats with FSH (4.33 IU/rat/injection; bid×2 days) and Pregnant Mare's Serum Gonadotropin (PMSG) (1.5 IU/rat/injection; bid×2 days). […] FSH and PMSG induced rats were then treated with either Compound 2 (12 rats) or vehicle (12 rats) by subcutaneous administration. In one cohort of rats (6 rats per treatment), ovulation was determined 18 hours after Compound 2 or vehicle administration by counting oocytes in oviduct. To assess fertility, another cohort of rats (6 rats per treatment) were individually placed overnight in a cage together with a single adult male rat of proven fertility. The next day, male rats were removed and the females were caged together by group until the day of parturition. The number of live full-term pups observed at the time of parturition was recorded. […] Results for both ovulation and live pups are expressed as mean plus or minus standard deviations.

[5] = single subcutaneous injection co-administered with sub-effective dose of hCG
[6] = subcutaneous injection alone, without hCG

Row | SMILES | ovulation (oocytes in oviduct) [1, 5] | ovulation (oocytes in oviduct) [1, 6] | ovulation (oocytes in oviduct, frequency of ovulating rats) ([2]; 50 mg/kg/injection bid x 3 days s.c. with sub-optimal FSH (1.08 IU), ovulatory hCG 20 IU) | ability of a sub-optimal dose of FSH to prepare follicles to ovulate ([2]; increasing doses 0.1, 1, 10, 50 mg/kg/injection bid x 3 days s.c. with sub-optimal FSH) | cAMP levels in conditioned media [3] | ovulation (oocytes in oviduct) ([4]; 18 hours) | number of live full-term pups at the time of parturition ([4]; mated overnight) | ovulation (oocytes in oviduct) ([1]; oral gavage, without hCG)
1 | COc1ccc([C@]2(C#N)CC[C@@H](C(=O)O)CC2)cc1OC1CCCC1 [Compound 1, Cis-4-cyano-4-(3-(cyclopentyloxy)-4-methoxyphenyl)cyclohexane-1-carboxylic acid] | induction of ovulation | induction of ovulation | inhibited | failed to enhance | significant increase |  |  | 
2 | COc1ccc(C(=O)Nc2c(Cl)cncc2Cl)cc1OC1CCCC1 [Compound 2, 3-(Cyclopentyloxy)-N-(3,5-dichloropyridin-4-yl)-4-methoxybenzamide] |  | induction of ovulation |  |  | significant increase | induction of ovulation | increased number of live pups | induction of ovulation
3 | CCOc1cc2cc(CO)c(CO)c(-c3ccnc(-n4nc(-c5cccnc5)c5ccccc5c4=O)c3)c2cc1OCC.Cl [Compound 3, 2-(4-(6,7-Diethoxy-2,3-bis(hydroxymethyl)naphthalen-1-yl)pyridin-2-yl)-4-(3-pyridyl) pthalazin-1 (2H)-one hydrochloride] |  | induction of ovulation |  |  |  |  |  | induction of ovulation
4 | Clc1nc2c(N3CCCC3)nc(N3CCNCC3)nc2nc1NCc1ccccc1 [Compound 4, 7-Benzylamino-6-chloro-2-piperazino-4-pyrrolidinopteridine] | induction of ovulation | little or no ovulation |  |  |  |  |  | 
